Test results reported in patent US5795907A, “Gastin and CCK receptor ligands” (James Black Foundation Limited, priority 1994, dated 1998).

Legend:
CCKB receptor = target: T1, CCKB receptor (Mus musculus, UniProt P56481); assay: CCKB receptor radioligand binding assay in mouse cortical membranes ([125I]-CCK8S); conditions: [125I]-CCK8S 200 pM, 150 min at 21±3°; for Ki: read-out: CCKB pKi (converted)
T1 construct: The cortex was dissected, weighed and homogenised in 40ml ice-cold buffer; tissue Charles River (supplier of the CD1 mice); host or cells: cerebral cortex membranes of male CD1 mice
T1 sequence (P56481 1-453): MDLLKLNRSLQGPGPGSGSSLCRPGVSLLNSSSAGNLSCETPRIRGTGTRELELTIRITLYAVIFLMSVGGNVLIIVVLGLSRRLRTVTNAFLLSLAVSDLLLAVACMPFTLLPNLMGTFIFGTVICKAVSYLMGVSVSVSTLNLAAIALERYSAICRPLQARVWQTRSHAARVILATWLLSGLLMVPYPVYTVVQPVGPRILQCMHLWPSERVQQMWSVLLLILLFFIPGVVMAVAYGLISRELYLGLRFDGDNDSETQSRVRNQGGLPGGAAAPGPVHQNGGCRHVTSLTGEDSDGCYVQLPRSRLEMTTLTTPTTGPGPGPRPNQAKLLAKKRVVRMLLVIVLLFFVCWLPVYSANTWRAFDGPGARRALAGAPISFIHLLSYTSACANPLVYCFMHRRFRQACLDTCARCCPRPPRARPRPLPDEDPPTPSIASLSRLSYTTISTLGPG
Method in brief: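 This was competition binding with tracer [125I]-CCK8S (200 pM solution added), run for 150 min at 21±3° on male CD1 mouse cortex membranes in pH 7.2 HEPES buffer with bacitracin. Filtration then gamma counting gave bound radioactivity. L-365,260 set the non-specific level.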

gastrin = target: T2, gastrin (Rattus norvegicus, UniProt P30553); assay: gastrin antagonist activity in an immature rat stomach assay (pentagastrin-stimulated acid secretion); conditions: cumulative pentagastrin dose-response curves after 60 min with drug; for Kb: read-out: Gastrin pKB (converted)
T2 construct: The stomach was lowered into a jacketed organ bath containing 40 ml of buffered solution; from tissue; host or cells: isolated perfused whole stomach of immature rats (ca. 21 days old)
T2 sequence (P30553 1-452): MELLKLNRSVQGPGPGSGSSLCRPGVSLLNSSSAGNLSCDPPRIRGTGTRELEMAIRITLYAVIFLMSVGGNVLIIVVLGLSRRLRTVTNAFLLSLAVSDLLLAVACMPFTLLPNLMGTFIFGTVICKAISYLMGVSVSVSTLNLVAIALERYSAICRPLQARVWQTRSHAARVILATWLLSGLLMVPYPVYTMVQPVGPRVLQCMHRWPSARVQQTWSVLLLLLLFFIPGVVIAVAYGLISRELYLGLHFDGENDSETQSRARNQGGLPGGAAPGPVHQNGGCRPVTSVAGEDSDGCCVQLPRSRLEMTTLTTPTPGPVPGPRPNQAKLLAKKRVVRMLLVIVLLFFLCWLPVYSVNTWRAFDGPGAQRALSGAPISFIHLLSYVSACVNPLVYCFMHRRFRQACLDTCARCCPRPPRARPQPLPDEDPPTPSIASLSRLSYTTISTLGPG
Method in brief: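 Isolated lumen-perfused immature rat stomach (33-50 g, ca. 21 days) in 37° organ bath with 3×10^-8 M 5-methylfurmethide; acid secretion read by pH electrode in perfusate. Compound added to serosal bath after 120 min stabilisation; cumulative pentagastrin dose-response curves begun 60 min later and analysed by the Black et al. method.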

CCKA = target: T3, CCKA (Cavia porcellus, UniProt Q63931); assay: CCKA radioligand binding assay in guinea-pig pancreas membranes ([125I]-CCK8(S)); conditions: PD134,308 present, 150 minutes at 21±3°; for Ki: read-out: CCKA pKi (converted)
T3 construct: The pancreatata were homogenised in 40 ml ice-cold HEPES buffer using a polytron; from tissue; host or cells: pancreas membranes of male Dunkin Hartley guinea-pigs
T3 sequence (Q63931 1-430): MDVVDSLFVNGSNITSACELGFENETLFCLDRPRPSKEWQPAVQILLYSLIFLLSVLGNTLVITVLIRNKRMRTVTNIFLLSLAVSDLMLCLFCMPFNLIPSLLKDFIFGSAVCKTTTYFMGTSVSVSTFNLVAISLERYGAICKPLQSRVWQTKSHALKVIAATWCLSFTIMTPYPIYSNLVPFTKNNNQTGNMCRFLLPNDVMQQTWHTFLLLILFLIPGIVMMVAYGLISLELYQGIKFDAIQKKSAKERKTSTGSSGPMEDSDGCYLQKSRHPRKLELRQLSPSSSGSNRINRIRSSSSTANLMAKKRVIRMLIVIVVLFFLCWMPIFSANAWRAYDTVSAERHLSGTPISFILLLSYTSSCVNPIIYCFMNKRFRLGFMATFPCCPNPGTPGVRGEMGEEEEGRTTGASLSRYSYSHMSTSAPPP
Method in brief: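 Competition for [125I]-CCK8(S) (added as […] solution) ran for 150 min at 21±3° in HEPES pH 7.2. Membranes came from male guinea-pig pancreas at 1 mg/ml original wet weight, with 0.375 μM PD134,308 in the suspension. Filter-bound counts were gamma-counted; 100 nM L-364,718 (added solution) defined non-specific binding.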

| CCKB pKi (CCKB receptor) | Gastrin pKB (gastrin) | CCKA pKi (CCKA) | Ki (CCKB receptor) | Kb (gastrin) | Ki (CCKA) | Molecule |
| --- | --- | --- | --- | --- | --- | --- |
| 7.0 | 7.8 | 5.2 |  |  |  | CN(O)C(=O)c1cc(NC(=O)[C@H](Cc2ccccc2)NC(=O)c2cc3cc[nH]c3cc2C(=O)NCC23CC4CC(CC(C4)C2)C3)cc(C(=O)N(C)O)c1 [Example 103, 5-(1S-(3,5-dihydroxy-N-(methyl)aminocarbonylphenylaminocarbonyl)-2-phenylethylaminocarbonyl)-6-(1-adamantanemethylaminocarbonyl)-indole] |
|  |  |  | 3.98 nM | 1 nM | 3980 nM | O=C(O)c1cc(NC(=O)[C@H](Cc2ccc(F)cc2)NC(=O)c2cc3[nH]cnc3cc2C(=O)NCC23CC4CC(CC(C4)C2)C3)cc(C(=O)O)c1 [Example 132, 5-(1S-(3,5-dicarboxyphenylaminocarbonyl)-2-(4-fluorophenyl)ethylaminocarbonyl)-6-(1-adamantanemethylaminocarbonyl)-benzimidazole] |
|  |  |  | 7.94 nM | 2 nM | 794 nM | O=C(NO)c1cc(NC(=O)[C@H](Cc2ccccc2)NC(=O)c2cc3cc[nH]c3cc2C(=O)NCC23CC4CC(CC(C4)C2)C3)cc(C(=O)NO)c1 [Example 34, 5-(1S-(3,5-dihydroxyaminocarbonylphenylaminocarbonyl)-2-phenylethylaminocarbonyl)-6-(1-adamantanemethylaminocarbonyl)-indole] |
|  |  |  | 794 nM | 126 nM | 3160 nM | COC(=O)c1cc(NC(=O)[C@H](Cc2ccccc2)NC(=O)c2cc3[nH]cnc3cc2C(=O)NCC23CC4CC(CC(C4)C2)C3)cc(C(=O)OC)c1 [Example 81, 5-(1S-(3,5-dimethoxycarbonylphenylaminocarbonyl)-2-phenylethylaminocarbonyl)-6-(1-adamantane-methylaminocarbonyl)-benzimidazole] |
| 6.5 | 6.8 | 4.9 |  |  |  | 5-(1S-(3,5-di-methylsulphonylaminophenylaminocarbonyl)-2-phenylethylaminocarbonyl)-6-(1-adamantanemethylaminocarbonyl)-indole [Example 92] |
| 7.6 | 8.2 | 5.6 |  |  |  | Nc1cccc2cc(C(=O)N[C@@H](Cc3ccccc3)C(=O)Nc3cc(C(=O)O)cc(C(=O)O)c3)c(C(=O)NCC34CC5CC(CC(C5)C3)C4)cc12 [Example 115, 2-(1S-(3,5-dicarboxyphenylaminocarbonyl)-2-phenylethylaminocarbonyl)-3-(1-adamantanemethylaminocarbonyl)-5-aminonaphthalene] |
|  |  |  | 20 nM | 20 nM | 2000 nM | O=C(O)c1cc(NC(=O)[C@H](Cc2ccccc2)NC(=O)C2Cc3ccccc3CN2C(=O)NCC23CC4CC(CC(C4)C2)C3)cc(C(=O)O)c1 (stereo partly drawn) [Example 57, 3-(1S-(3,5-dicarboxyphenylaminocarbonyl)-2-phenylethylaminocarbonyl)-2-(1-adamantanemethylaminocarbonyl)-1,2,3,4-tetrahydroisoquinoline] |
|  |  |  | 1.26 nM | 2.51 nM | 316 nM | O=C(NCC12CC3CC(CC(C3)C1)C2)c1cc2[nH]ccc2cc1C(=O)N[C@@H](Cc1ccccc1)C(=O)Nc1cc(-c2nn[nH]n2)cc(-c2nn[nH]n2)c1 [Example 104, 5-(1S-(3,5-ditetrazolylphenylaminocarbonyl)-2-phenylethylaminocarbonyl)-6-(1-adamantanemethylaminocarbonyl)-indole] |
| 6.7 | 7.1 | 5.1 |  |  |  | 5-(1S-(3,5-dicarboxyphenylaminocarbonyl)-2-phenylethylaminocarbonyl)-6-(2,2-dimethylpropylaminocarbonyl)-indole and regioisomer with substituents at positions 5 and 6 reversed [Example 46] |
|  |  |  | 316 nM | 79.4 nM | 7940 nM | O=C(O)c1cc(NC(=O)[C@H](Cc2c[nH]cn2)NC(=O)c2cc3[nH]cnc3cc2C(=O)NCC23CC4CC(CC(C4)C2)C3)cc(C(=O)O)c1 [Example 69, 5-(1S-(3,5-dicarboxyphenylaminocarbonyl)-2-(2,4-imidazolyl)ethylaminocarbonyl)-6-(1-adamantanemethylaminocarbonyl)-benzimidazole] |
| 6.6 | 6.9 | 6.1 |  |  |  | 5-(1S-(trans 3,4-dicarboxypyrrolidinocarbonyl)-2-phenylethylaminocarbonyl)-6-(1-adamantanemethylaminocarbonyl)-indole and regioisomer with substituents at positions 5 and 6 reversed [Example 50] |
|  |  |  | 20 nM | 100 nM | 1000 nM | O=C(O)c1cccc(NC(=O)[C@H](Cc2ccccc2)NC(=O)c2cc3[nH]cnc3cc2C(=O)NCC23CC4CC(CC(C4)C2)C3)c1 [Example 79, 5-(1S-(3-carboxyphenylaminocarbonyl)-2-phenylethylaminocarbonyl)-6-(1-adamantanemethylaminocarbonyl)-benzimidazole] |
|  |  |  | 1580 nM | 398 nM | 1580 nM | COC(=O)[C@H]1CCCN1C(=O)c1cc2ccccc2cc1C(=O)NCC12CC3CC(CC(C3)C1)C2 [Example 7, 2-(2R-methoxycarbonylpyrrolidino-carbonyl)-3-(1-adamantanemethylaminocarbonyl)-naphthalene] |

| Molecule | CCKB pKi (CCKB receptor) | Gastrin pKB (gastrin) | CCKA pKi (CCKA) | Ki (CCKB receptor) | Kb (gastrin) | Ki (CCKA) |
| --- | --- | --- | --- | --- | --- | --- |
| CC(=O)Oc1cc(OC(C)=O)c2cc(C(=O)N[C@@H](Cc3ccccc3)C(=O)Nc3cc(C(=O)O)cc(C(=O)O)c3)c(C(=O)NCC34CC5CC(CC(C5)C3)C4)cc2c1 [Example 53, 3-(1S-(3,5-dicarboxyphenylaminocarbonyl)-2-phenylethylaminocarbonyl)-2-(1-adamantanemethylaminocarbonyl)-5,7-diacetoxy-naphthalene] | 8.1 | 7.9 | 6.1 |  |  |  |
| O=C(O)c1cc(NC(=O)[C@H](Cc2ccccc2)NC(=O)c2cc3cc[nH]c3cc2C(=O)NCC2CN3CCC2CC3)cc(C(=O)O)c1 (stereo partly drawn) [Example 108, 5-(1S-(3,5-dicarboxyphenylaminocarbonyl)-2-phenylethylaminocarbonyl)-6-(1-azabicyclo[2.2.2]oct-3-ylmethylaminocarbonyl)-indole] |  |  |  | 1260 nM | 794 nM | > 10000 nM |
| CC(=O)Oc1cc(OC(C)=O)c2cc(C(=O)NCC34CC5CC(CC(C5)C3)C4)c(C(=O)N[C@@H](Cc3ccccc3)C(=O)Nc3cc(C(=O)O)cc(C(=O)O)c3)cc2c1 [Example 54, 2-(1S-(3,5-dicarboxyphenylaminocarbonyl)-2-phenylethylaminocarbonyl)-3-(1-adamantanemethylaminocarbonyl)-5,7-diacetoxy-naphthalene] | 8.1 | 8.1 | 5.9 |  |  |  |
